Measured values published in patent publication US20240287047A1, “PESTICIDALLY ACTIVE DIAZINE-AMIDE COMPOUNDS” (SYNGENTA CROP PROTECTION AG, priority 2021, published 2024).

How the values were obtained:
Format in all cases: in vivo
Spodoptera littoralis = assay: Example B5: Spodoptera littoralis (Egyptian cotton leaf worm), cotton leaf discs, L1 larvae; conditions: foliar, 72 h, application rate of 200 ppm, 3 days after infestation, read-out: control in at least one of the three categories (mortality, anti-feedant effect, or growth inhibition)
Description: Cotton leaf discs were placed onto agar in 24-well microtiter plates and sprayed with aqueous test solutions prepared from 10,000 ppm DMSO stock solutions. After drying the leaf discs were infested with five L1 larvae. The samples were assessed for mortality, anti-feeding effect, and growth inhibition in comparison to untreated samples 3 days after infestation. Control of Spodoptera littoralis by a test sample is given when at least one of the categories mortality, anti-feedant effect, and growth inhibition is higher than the untreated sample.

Plutella xylostella = assay: Example B4: Plutella xylostella (diamond back moth), artificial diet, eggs; conditions: Plutella xylostella, 192 h; application rate of 200 ppm; 8 days after infestation; read-out: control in at least one of the two categories (mortality or growth inhibition)
Description: 24-well microtiter plates with artificial diet were treated with aqueous test solutions prepared from 10′000 ppm DMSO stock solutions by pipetting. After drying, Plutella eggs were pipetted through a plastic stencil onto a gel blotting paper and the plate was closed with it. The samples were assessed for mortality and growth inhibition in comparison to untreated samples 8 days after infestation.

Diabrotica balteata = assay: Example B2: Diabrotica balteata (corn root worm), maize sprouts, L2 larvae; conditions: for percent control (mortality or growth inhibition) at 200 ppm: Diabrotica balteata, 96 h, application rate of 200 ppm, 4 days after infestation, read-out: control in at least one of the two categories (mortality or growth inhibition)
Description: Maize sprouts placed onto an agar layer in 24-well microtiter plates were treated with aqueous test solutions prepared from 10,000 ppm DMSO stock solutions by spraying. After drying, the plates were infested with L2 larvae (6 to 10 per well). The samples were assessed for mortality and growth inhibition in comparison to untreated samples 4 days after infestation.

Chilo suppressalis = assay: Example B1: Chilo suppressalis (striped rice stemborer), artificial diet, L2 larvae; conditions: 144 h, application rate of 200 ppm, 6 days after infestation, read-out: control in at least one of the three categories (mortality, anti-feedant effect, or growth inhibition)
Description: 24-well microtiter plates with artificial diet were treated with aqueous test solutions prepared from 10,000 ppm DMSO stock solutions by pipetting. After drying, the plates were infested with L2 larvae (6-8 per well). The samples were assessed for mortality, anti-feeding effect, and growth inhibition in comparison to untreated samples 6 days after infestation. Control of Chilo suppressalis by a test sample is given when at least one of the categories mortality, anti-feedant effect, and growth inhibition is higher than the untreated sample.

Question: Which percent control (mortality, anti-feedant effect or growth inhibition) at 200 ppm (Spodoptera littoralis) does the source give for CC(NC(=O)c1cc(Cl)nc(C2(C#N)CC2)c1)c1nccnc1-c1cnccn1 (stereo not shown) [Compound P27, 2-chloro-6-(1-cyanocyclopropyl)-N-[1-(3-pyrazin-2-ylpyrazin-2-yl)ethyl]pyridine-4-carboxamide] here?
Answer: ≥ 80%

Question: What about the percent control (mortality or growth inhibition) at 200 ppm (Plutella xylostella) of the same compound?
Answer: ≥ 80%

Question: And the percent control (mortality or growth inhibition) at 200 ppm (Diabrotica balteata)?
Answer: ≥ 80%

Question: And the percent control (mortality, anti-feedant effect or growth inhibition) at 200 ppm (Chilo suppressalis)?
Answer: ≥ 80%

Question: Which percent control (mortality, anti-feedant effect or growth inhibition) at 200 ppm (Spodoptera littoralis) does the source give for CC(NC(=O)c1cc(C(F)(F)F)cc(C(C)(C)C#N)c1)c1nccnc1-c1cnccn1 (stereo not shown) [Compound P5, 3-(1-cyano-1-methyl-ethyl)-N-[1-(3-pyrazin-2-ylpyrazin-2-yl)ethyl]-5-(trifluoromethyl)benzamide] here?
Answer: ≥ 80%

Question: And the percent control (mortality or growth inhibition) at 200 ppm (Plutella xylostella)?
Answer: ≥ 80%

Question: And the percent control (mortality or growth inhibition) at 200 ppm (Diabrotica balteata)?
Answer: ≥ 80%

Question: What about the percent control (mortality, anti-feedant effect or growth inhibition) at 200 ppm (Chilo suppressalis) of the same compound?
Answer: ≥ 80%

Question: Which results are given for CC(NC(=O)c1cc(C(F)(F)F)cc(S(C)(=O)=O)c1)c1nccnc1-c1cnc(Cl)cn1 (stereo not shown) [Compound P35, N-[1-[3-(5-chloropyrazin-2-yl)pyrazin-2-yl]ethyl]-3-methylsulfonyl-5-(trifluoromethyl)benzamide]?
Answer: percent control (mortality, anti-feedant effect or growth inhibition) at 200 ppm (Spodoptera littoralis): ≥ 80%; percent control (mortality or growth inhibition) at 200 ppm (Plutella xylostella): ≥ 80%; percent control (mortality or growth inhibition) at 200 ppm (Diabrotica balteata): ≥ 80%; percent control (mortality, anti-feedant effect or growth inhibition) at 200 ppm (Chilo suppressalis): ≥ 80%

Question: For CC(NC(=O)c1cc(C2CC2)nc(C(F)(F)F)c1)c1nccnc1-c1cnccn1 (stereo not shown) [Compound P11, 2-cyclopropyl-N-[1-(3-pyrazin-2-ylpyrazin-2-yl)ethyl]-6-(trifluoromethyl)pyridine-4-carboxamide], which percent control (mortality, anti-feedant effect or growth inhibition) at 200 ppm (Spodoptera littoralis) is on record?
Answer: ≥ 80%

Question: What about the percent control (mortality or growth inhibition) at 200 ppm (Plutella xylostella) of the same compound?
Answer: ≥ 80%

Question: And the percent control (mortality or growth inhibition) at 200 ppm (Diabrotica balteata)?
Answer: ≥ 80%

Question: And the percent control (mortality, anti-feedant effect or growth inhibition) at 200 ppm (Chilo suppressalis)?
Answer: ≥ 80%

Question: For CC(c1nccnc1-c1cnccn1)N(C)C(=O)c1cc(Cl)nc(C2(C#N)CC2)c1 (stereo not shown) [Compound P29, 2-chloro-6-(1-cyanocyclopropyl)-N-methyl-N-[1-(3-pyrazin-2-ylpyrazin-2-yl)ethyl]pyridine-4-carboxamide], which percent control (mortality, anti-feedant effect or growth inhibition) at 200 ppm (Spodoptera littoralis) is on record?
Answer: ≥ 80%

Question: What about the percent control (mortality or growth inhibition) at 200 ppm (Plutella xylostella) of the same compound?
Answer: ≥ 80%

Question: And the percent control (mortality or growth inhibition) at 200 ppm (Diabrotica balteata)?
Answer: ≥ 80%

Question: What about the percent control (mortality, anti-feedant effect or growth inhibition) at 200 ppm (Chilo suppressalis) of the same compound?
Answer: ≥ 80%

Question: With CC(NC(=O)c1cc(C(F)F)cc(C(F)(F)F)c1)c1nccnc1-c1cnccn1 (stereo not shown) [Compound P10, 3-(difluoromethyl)-N-[1-(3-pyrazin-2-ylpyrazin-2-yl)ethyl]-5-(trifluoromethyl)benzamide] as the compound, how does the percent control (mortality, anti-feedant effect or growth inhibition) at 200 ppm (Spodoptera littoralis) read?
Answer: ≥ 80%

Question: What about the percent control (mortality or growth inhibition) at 200 ppm (Plutella xylostella) of the same compound?
Answer: ≥ 80%

Question: What about the mortality at 50 ppm (Diabrotica balteata; Concentration 50 ppm, Diabrotica balteata (Example B32)) of the same compound?
Answer: 100%

Question: And the percent control (mortality or growth inhibition) at 200 ppm (Diabrotica balteata)?
Answer: ≥ 80%

Question: And the percent control (mortality, anti-feedant effect or growth inhibition) at 200 ppm (Chilo suppressalis)?
Answer: ≥ 80%

Question: How did the percent control (mortality, anti-feedant effect or growth inhibition) at 200 ppm (Spodoptera littoralis) turn out when CC(NC(=O)c1cc(Cl)cc(Cl)c1)c1nccnc1-c1cnccn1 (stereo not shown) [Compound P8, 3,5-dichloro-N-[1-(3-pyrazin-2-ylpyrazin-2-yl)ethyl]benzamide] was run?
Answer: ≥ 80%

Question: What about the percent control (mortality or growth inhibition) at 200 ppm (Plutella xylostella) of the same compound?
Answer: ≥ 80%

Question: And the percent control (mortality or growth inhibition) at 200 ppm (Diabrotica balteata)?
Answer: ≥ 80%

Question: And the percent control (mortality, anti-feedant effect or growth inhibition) at 200 ppm (Chilo suppressalis)?
Answer: ≥ 80%

Question: Which percent control (mortality, anti-feedant effect or growth inhibition) at 200 ppm (Spodoptera littoralis) does the source give for CC(NC(=O)c1cc(C(F)(F)F)nc(C2(C#N)CC2)c1)c1nccnc1-c1cnccn1 (stereo not shown) [Compound P4] here?
Answer: ≥ 80%

Question: And the percent control (mortality or growth inhibition) at 200 ppm (Plutella xylostella)?
Answer: ≥ 80%

Question: And the percent control (mortality or growth inhibition) at 200 ppm (Diabrotica balteata)?
Answer: ≥ 80%

Question: What about the percent control (mortality, anti-feedant effect or growth inhibition) at 200 ppm (Chilo suppressalis) of the same compound?
Answer: ≥ 80%

Question: Which percent control (mortality, anti-feedant effect or growth inhibition) at 200 ppm (Spodoptera littoralis) does the source give for CC(NC(=O)c1cc(Br)cc(I)c1)c1nccnc1-c1cnccn1 (stereo not shown) [Compound P24, 3-bromo-5-iodo-N-[1-(3-pyrazin-2-ylpyrazin-2-yl)ethyl]benzamide] here?
Answer: ≥ 80%

Question: And the percent control (mortality or growth inhibition) at 200 ppm (Plutella xylostella)?
Answer: ≥ 80%

Question: What about the percent control (mortality or growth inhibition) at 200 ppm (Diabrotica balteata) of the same compound?
Answer: ≥ 80%

Question: And the percent control (mortality, anti-feedant effect or growth inhibition) at 200 ppm (Chilo suppressalis)?
Answer: ≥ 80%
